Data from ChEMBL document CHEMBL1123068, “2-Fluoroformycin and 2-aminoformycin. Synthesis and biological activity” (J Med Chem, 1985).

Experiment: Ratio of kinetic parameters Vmax to the of Km.

## Nc1nc(N)c2ncn([C@@H]3O[C@H](CO)[C@@H](O)[C@H]3O)c2n1
  Ratio: 3.6

## Nc1nc(F)nc2c1ncn2[C@@H]1O[C@H](CO)[C@@H](O)[C@@H]1O
  Ratio: 0.0096

## Nc1ncnc2c1ncn2[C@@H]1O[C@H](CO)[C@@H](O)[C@H]1O
  Ratio: 15
